Measured values taken from patent publication US7566550B2, “Screening method for developing drugs against pathogenic microbes having two-component system” (priority 2002, dated 2009).
Several values for one entry are separate records, joined by “and”; a condition that tells them apart may be missing. Equal entries are not always repeated. Entries after “also recorded” stand apart in the source; their conditions may differ.

Columns and labels:
[1] = biological target: T1, DevS201 (Mycobacterium tuberculosis, UniProt P9WGK3); assay: Coomassie-stained SDS-PAGE check for aggregation of sensor kinase DevS201; parameters: species or system M. tuberculosis; settings: coomassie-stained SDS-PAGE of autophosphorylation reaction
[2] = biological target: T1, DevS201; assay: High-throughput (96-well filter retention) autophosphorylation of sensor kinase DevS201 with [γ32P]ATP; format: biochemical, M. tuberculosis; settings: for IC50: high-throughput format, concentration course 2.5 mM to 1 μM, read-out: concentration required to cause 50% inhibition (IC50) of the autophosphorylation of DevS201
[3] = biological target: T2, Rv2027194 (Mycobacterium tuberculosis, UniProt P9WGK1); assay: Coomassie-stained SDS-PAGE check for aggregation of sensor kinase Rv2027194; parameters: species or system M. tuberculosis; settings: coomassie-stained SDS-PAGE of autophosphorylation reaction
[4] = biological target: T2, Rv2027194; assay: High-throughput (96-well filter retention) autophosphorylation of sensor kinase Rv2027194 with [γ32P]ATP; format: biochemical, M. tuberculosis; settings: high-throughput format, concentration course 2.5 mM to 1 μM; read-out: concentration required to cause 50% inhibition (IC50) of the autophosphorylation of Rv2027194
[5] = biological target: T1, DevS201; assay: SDS-PAGE/autoradiography assay of DevS201 autophosphorylation in presence of candidate compounds; format: biochemical, M. tuberculosis; settings: 1 mM compound, 12 μM DevS201, SDS-PAGE format
Protocol: FIG. 16. Inhibition of autophosphorylation of sensor kinase DevS201 by various candidate compounds. Autoradiogram of SDS-PAGE of autophosphorylation reaction products. Lane 1, levamisole HCl; lane 2, folic acid; lane 3, gly-gly-glycine; lane 4, EGTA; lane 5, bromo-phenol blue; lane 6, HABA; lane 7, ethidium bromide; lane 8, anti-DevS antibody (1 μl); lane 9, no compound. Briefly, all the mentioned compounds (1 mM final concentration) were added to 12 μM of DevS201 in reaction buffer without ATP and incubated at RT for 30 minutes after which the reaction was initiated by addition of [γ^32P]ATP and cold ATP. The reaction contents were then incubated at 25° C. for 60 minutes and were subsequently analyzed on gel as mentioned earlier.
Utilizing this knowledge a few compounds were tested for their inhibitory activity on the autophosphorylation potential of DevS sensor kinase. These included levamisole, folic acid, glycyl glycyl glycine, ethidium bromide, bromo phenol blue, 2-4-hydroxyphenylazo benzoic acid (HABA), 2-mercapto benzimidazole etc. […]
To elaborate, 12 μM of DevS201 was incubated with the aforementioned compounds in the phosphorylation reaction buffer (50 mM Tris.HCl, pH 8.0, 50 mM KCl and 25 mM MgCl2) for 30 minutes at room temperature. […] Subsequently, the reactions were terminated and analyzed on SDS-PAGE as mentioned previously.

[6] = test system: tubercle bacilli; settings: replicating, static and multidrug-resistant bacilli; cited from earlier work

T2 sequence (P9WGK1 380-573 limits assumed): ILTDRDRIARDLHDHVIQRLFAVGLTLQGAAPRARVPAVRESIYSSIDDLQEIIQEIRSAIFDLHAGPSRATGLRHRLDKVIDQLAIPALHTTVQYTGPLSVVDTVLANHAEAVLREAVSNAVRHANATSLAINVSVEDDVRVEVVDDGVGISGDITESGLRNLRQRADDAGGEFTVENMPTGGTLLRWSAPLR
T1 sequence (P9WGK3 378-578 limits assumed): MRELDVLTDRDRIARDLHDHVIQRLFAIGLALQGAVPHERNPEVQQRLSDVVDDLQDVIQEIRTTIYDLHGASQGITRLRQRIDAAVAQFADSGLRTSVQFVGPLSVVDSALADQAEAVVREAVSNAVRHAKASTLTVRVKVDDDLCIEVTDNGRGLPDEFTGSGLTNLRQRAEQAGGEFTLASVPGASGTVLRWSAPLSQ

SMILES | aggregation of sensor kinase DevS201 in presence of compound [1] | IC50 [2] | aggregation of sensor kinase Rv2027194 in presence of compound [3] | IC50 [4] | inhibition of the autophosphorylation of DevS201 (autoradiogram) [5] | inhibition at 2500 µM ([2]; in the presence of 2.5 mM, read-out: inhibition of DevS) [%] | activity against tubercle bacilli [6]
Sc1nc2ccccc2[nH]1 [2-MBI, 2-mercapto benzimidazole] | absence of aggregate | 400 to 600 µM and 300 to 800 µM | absence of aggregate | 400 to 600 µM and 300 to 800 µM | – | – | –
O=S1(=O)OC(c2cc(Br)c(O)c(Br)c2)(c2cc(Br)c(O)c(Br)c2)c2ccccc21 [BPB, 3′,3″,5′,5″-Tetrabromophenol tetrabromosulfonapthalene] | no aggregation; also recorded: did not cause aggregation | 1500 to 1700 µM | no aggregation; also recorded: did not cause aggregation | 1500 to 1700 µM | visible inhibition | – | –
CC[n+]1c(-c2ccccc2)c2cc(N)ccc2c2ccc(N)cc21.[Br-] [EtBr, Phenanthridinium, 3,8-diamino-5-ethyl-6-phenyl-, bromide] | no aggregation; also recorded: did not cause aggregation | > 2500 µM | no aggregation; also recorded: did not cause aggregation | 600 to 700 µM and 500 to 1000 µM | visible inhibition | 35 | –
O=[N+]([O-])c1cn2c(n1)OC[C@@H](OCc1ccc(OC(F)(F)F)cc1)C2 [PA-824] | – | – | – | – | – | – | activity against both replicating and static tubercle bacilli as well as multidrug-resistant bacilli
